What was measured:
[1] = test system: antigen-induced airway hyperreactivity; experiment: Antigen-induced airway hyperactivity assay in ovalbumin-sensitized guinea pigs; assay type: in vivo, guinea pig; details: for Increase in Airway Resistance (Area Under Curve) / Dynamic Lung Compliance (Area Under Curve): 24 hours prior to antigen challenge, histamine challenge i.v.; for Increase in Airway Resistance (Area Under Curve): Saline 3490, OVA (no treatment) 12586; for Dynamic Lung Compliance (Area Under Curve): Saline −799, OVA (no treatment) −1386
Protocol: Antigen sensitization and challenge: Male Hartley guinea pigs (225-250 g) were sensitized with ovalbumin (0.5 ml of 1% solution, i.p. and s.c.) on day 1 (Aug. 25, 2008). On day 4 (Aug. 28, 2008), animals received a booster injection (i.p.) of 0.5 ml of 1% ovalbumin. On day 21 (Sep. 16, 2008), animals were orally dosed (2 ml/kg) with either vehicle (0.5% methylcellulose/0.2% Tween 80) or compound(s) 24 hours prior to antigen challenge. Thirty minutes before antigen challenge the animals were also injected with mepyramine (10 mg/kg, i.p.) to prevent anaphylactic collapse. Animals were then exposed for 20 min to an aerosol of 1% ovalbumin using a DeVilbiss Ultraneb nebulizer. Negative control animals were not challenged. Sensitizing solution: One gram (1 g) of albumin from chicken egg white (Sigma A55031G; lot#087K7004) was added to 100 ml of saline and allowed to go into solution.
Airway resistance measurement: Eighteen to twenty four hours after challenge, animals were anesthetized, (0.5 ml dose (i.m.) of cocktail containing ketamine (62 mg/kg), xylazine (30 mg/kg) and Promace (1.5 mg/kg)), surgically prepared and then placed in a whole body plethysmograph. Animals were connected to Ugo-Basile ventilators delivering a tidal volume of 1 ml/100 g at a rate of 50 breaths/minute via a tracheal cannula. The jugular vein is also cannulated for histamine challenge. A-water filled esophageal cannula was placed such that transpulmonary pressure could be recorded. Transpulmonary pressure was measured as the difference between the tracheal and esophageal cannulas using a differential pressure transducer. The volume, airflow, and transpulmonary pressure signals are monitored using a pulmonary analysis system (Buxco XA software) and used to calculate pulmonary resistance (cmH2O/ml/s) and dynamic compliance (ml/cmH20). Airway resistance and dynamic compliance are computed on a breath-by-breath basis. Histamine is administered intravenously and reactivity to increasing concentrations (1-20 μg/kg) assessed.

[2] = Suspension of benzoate salt in water, solid form checked by XRPD and thermal analysis; assay type: physicochemical; details: 50 mg/mL free base equivalent in nanopure water, total 29 hours as suspension, then air dried
Protocol: Sample Preparation: Material was prepared as in the reference example 3 above. A suspension of the benzoate salt was prepared as 50 mg/mL free base equivalent in nanopure water, which was 63.6 mg salt in 1 mL water. Sample was stirred at 500 rpm overnight and allowed to stand for 4 hours before it was centrifuged (total 29 hours as suspension). It was centrifuged at 13000 rpm for 8 minutes and the collected solid was analyzed by XRPD (x-ray power diffraction) as wet sample and evaluated by microscope. The wet solid was then air dried at ambient room temperature overnight to be analyzed as the dry sample by XRPD and thermal analysis. The as is drug substance is compared as the initial material. The XRPD of free base drug substance was also used as the comparison. The benzoate appeared to be a variable hydrate, with the XRPD displaying the same peaks for different amounts of water.
• XRPD Method • Siemens Model D5000 with Cu anticathode • Program: 1.0 Sec. dql • Range: 2° to 40°. […]

[3] = target: T1, recombinant human β tryptase (Homo sapiens, UniProt Q15661); experiment: β-Tryptase inhibitory potency, in vitro enzyme assay (IC50 and Ki determination); assay type: biochemical; details: 0.5 mM substrate S2366 (2×Km), room temperature, pH 8.2; Ki=IC50/(1+[Substrate]/Km)
T1 construct: made in house; host or cells: yeast cells
Protocol: Tryptase inhibition activity is confirmed using either isolated human lung tryptase or recombinant human β tryptase expressed in yeast cells. Essentially equivalent results are obtained using isolated native enzyme or the expressed enzyme. The assay procedure employs a 96 well microplate (Costar 3590) using L-pyroglutamyl-L-prolyl-L-arginine-para-nitroanilide (S2366: Quadratech) as substrate (essentially as described by McEuen et. al. Biochem Pharm, 1996, 52, pages 331-340). Assays are performed at room temperature using 0.5 mM substrate (2×Km) in 50 mM Tris (pH 8.2), 100 mM NaCl, 0.05% Tween 20, 50 μg/mL heparin, and the microplate is read on a microplate reader (Beckman Biomek Plate reader) at 405 nm wavelength.
The protocol is essentially the same as above except that the compound is added in duplicates at the following final concentrations: 0.01, 0.03, 0.1, 0.3, 1, 3, 10 μM (All dilutions carried out manually). For every assay, whether single point or IC50 determination, a standard compound is used to derive IC50 for comparison. From the IC50 value, the Ki can be calculated using the following formula: Ki=IC50/(1+[Substrate]/Km).

T1 sequence (Q15661 31-275): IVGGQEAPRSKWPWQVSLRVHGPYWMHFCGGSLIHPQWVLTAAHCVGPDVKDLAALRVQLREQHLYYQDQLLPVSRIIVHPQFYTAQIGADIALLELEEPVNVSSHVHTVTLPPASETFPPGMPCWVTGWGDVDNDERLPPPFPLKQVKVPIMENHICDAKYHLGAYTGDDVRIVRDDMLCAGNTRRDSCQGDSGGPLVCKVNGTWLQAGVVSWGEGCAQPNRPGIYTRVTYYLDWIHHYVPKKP

For COCCn1cc(C(=O)N2CCC(c3cc(CN)ccc3F)CC2)c2c(OC(F)(F)F)ccc(F)c21.COCCn1cc(C(=O)N2CCC(c3cc(CN)ccc3F)CC2)c2c(OC(F)(F)F)ccc(F)c21.O.O.O=C(O)/C=C/C(=O)O.O=C(O)/C=C/C(=O)O.O=C(O)/C=C/C(=O)O [Fumarate Salt, [4-(5-Aminomethyl-2-fluorophenyl)piperidine-1-yl][7-fluoro-1-(2-methoxyethyl)-4-trifluoromethoxy-1H-indol-3-yl]methanone Sesquifumarate Monohydrate], the “Increase in Airway Resistance (Area Under Curve)” value (from here on “Increase in Airway Resistance”) ([1]; 0.01 mg/kg oral) was 9647 +/− 818, the “Dynamic Lung Compliance (Area Under Curve)” value (“Dynamic Lung Compliance” below) ([1]; 0.01 mg/kg oral) was −1218 +/− 47 and the “Increase in Airway Resistance” value ([1]; 0.03 mg/kg oral) was 8103 +/− 745. For the same compound, the “Dynamic Lung Compliance” value ([1]; 0.03 mg/kg oral) was −1156 +/− 40, the “Increase in Airway Resistance” value ([1]; 0.1 mg/kg oral) was 6623 +/− 511 and the “Dynamic Lung Compliance” value ([1]; 0.1 mg/kg oral) was −1004 +/− 43. For the same compound, the “Inhibition of antigen-induced airway hyperreactivity (in words)” value ([1]; dosed 24 hours prior to allergen challenge, guinea pig, oral) was “dose-related inhibition of antigen-induced airway hyperreactivity”.

For COCCn1cc(C(=O)N2CCC(c3cc(CN)ccc3F)CC2)c2c(OC(F)(F)F)ccc(F)c21.O=C(O)c1ccccc1 [benzoate salt, [4-(5-Aminomethyl-2-fluorophenyl)piperidine-1-yl][7-fluoro-1-(2-methoxyethyl)-4-trifluoromethoxy-1H-indol-3-yl]methanone Benzoate], the “Solid form stability in aqueous suspension (XRPD and thermal analysis)” value [2] was “no free base or conversions to hydrate form were noted”.

Compound COCCn1cc(C(=O)N2CCC(c3cc(CN)ccc3F)CC2)c2c(OC(F)(F)F)ccc(F)c21 [compound of formula I, [4-(5-aminomethyl-2-fluoro-phenyl)-piperidin-1-yl]-[7-fluoro-1-(2-methoxy-ethyl)-4-trifluoromethoxy-1H-indol-3-yl]-methanone] has a Ki [3] of 26 ± 5 nM.
